From the Kinase Knowledgebase extract (Sharma et al. 2016)

target: CDK2 (human) (UniProt P24941); test: Enzyme Assay

Structure (SMILES) | IC50
Cc1c(N[C@H]2CC[C@H](N)CC2)nc2ccnn2c1Nc1cccc(OCCn2ccnc2)c1 | < 100 µM
CCOc1ccc(Nc2c(C)c(NC(CO)C(C)C)nc3ccnn23)cc1 (stereo unspecified) | < 100 µM
Cc1c(N[C@H]2CC[C@H](N)CC2)nc2ccnn2c1Nc1cccc(OCc2cccc(N)c2)c1 | < 100 µM
Cc1c(N[C@H]2CC[C@H](N)CC2)nc2ccnn2c1Nc1ccc(-c2cccc(N(C)C)c2)cc1 | < 100 µM
COc1cccc(Nc2c(C)c(N[C@H]3CC[C@H](N)CC3)nc3ccnn23)c1 | < 100 µM
Cc1c(N[C@H]2CC[C@H](N)CC2)nc2ccnn2c1Nc1ccccc1Cl | < 100 µM
Cc1ccccc1-c1ccc(Nc2c(C)c(N[C@H]3CC[C@H](N)CC3)nc3ccnn23)cc1 | < 100 µM
CCOc1ccc(Nc2c(C)c(N[C@H]3CC[C@H](N)CC3)nc3c(C(=O)O)cnn23)cc1 | < 100 µM
Cc1c(N[C@H]2CC[C@H](N)CC2)nc2ccnn2c1Nc1ccc(OCC2CCCC2)cc1 | < 100 µM
Cc1c(N[C@H]2CC[C@H](N)CC2)nc2ccnn2c1Nc1ccc(OC2CCOCC2)cc1 | < 100 µM
Cc1c(N[C@H]2CC[C@H](N)CC2)nc2ccnn2c1Nc1ccc(-c2ccoc2)cc1 | < 100 µM
Cc1c(N[C@H]2CC[C@H](N)CC2)nc2ccnn2c1Nc1ccc(OC(F)(F)F)c(Cl)c1 | < 100 µM
Cc1c(N[C@H]2CC[C@H](N)CC2)nc2ccnn2c1Nc1ccc(C(=O)NCc2ccco2)cc1 | < 100 µM
Cc1ccc(Nc2c(C)c(N[C@H]3CC[C@H](N)CC3)nc3ccnn23)cc1C | < 100 µM
Cc1c(N[C@H]2CC[C@H](N)CC2)nc2ccnn2c1Nc1ccc(F)c(Cl)c1 | < 100 µM
Cc1c(N[C@H]2CC[C@H](N)CC2)nc2ccnn2c1Nc1ccc(N(C)C)cc1 | < 100 µM
Cc1c(N[C@H]2CC[C@H](N)CC2)nc2ccnn2c1Nc1ccc(OCC2CCCCC2)cc1 | < 100 µM
CCc1c(N[C@H]2CC[C@H](N)CC2)nc2ccnn2c1Nc1cccc(OCc2ccccc2)c1 | < 100 µM
N[C@H]1CC[C@H](Nc2cc(Nc3ccc(F)c(Cl)c3)n3ncc(I)c3n2)CC1 | < 100 µM
CCc1c(N[C@H]2CC[C@H](N)CC2)nc2ccnn2c1NCc1ccccc1Cl | < 100 µM
Cc1c(N[C@H]2CC[C@H](N)CC2)nc2ccnn2c1Nc1cccc(OCc2cccnc2)c1 | < 100 µM
CCOc1ccc(Nc2c(C)c(N[C@H]3CC[C@H](N)CC3)nc3c(S(C)(=O)=O)cnn23)cc1 | < 100 µM
COc1c(NC2CCCNC2)nc2ccnn2c1Nc1ccc(F)c(Cl)c1 (stereo unspecified) | < 100 µM
N[C@H]1CC[C@H](Nc2cc(NCc3cccc(Cl)c3)n3ncc(I)c3n2)CC1 | < 100 µM

Structure (SMILES) | IC50
N[C@H]1CC[C@H](Nc2cc(Nc3ccccc3Cl)n3ncc(I)c3n2)CC1 | < 100 µM
CCOC(=O)c1cccc(Nc2c(C)c(N[C@H]3CC[C@H](N)CC3)nc3ccnn23)c1 | < 100 µM
COc1ccccc1-c1ccc(Nc2c(C)c(N[C@H]3CC[C@H](N)CC3)nc3ccnn23)cc1 | < 100 µM
CCCNc1c(C)c(N[C@H]2CC[C@H](N)CC2)nc2ccnn12 | < 100 µM
Cc1nc2cc(Nc3c(C)c(N[C@H]4CC[C@H](N)CC4)nc4ccnn34)ccc2s1 | < 100 µM
CCOc1ccc(Nc2c(C)c(N(CC)C3CCCNC3)nc3ccnn23)cc1 (stereo unspecified) | < 100 µM
CCOc1ccc(Nc2c(C)c(N[C@H]3CC[C@H](N)CC3)nc3c(C(=O)Nc4cc[nH]n4)cnn23)cc1 | < 100 µM
Cc1c(N[C@H]2CC[C@H](N)CC2)nc2ccnn2c1Nc1ccc(-c2ccccc2O)cc1 | < 100 µM
CCOC(=O)c1cccc(Nc2c(CC)c(N[C@H]3CC[C@H](N)CC3)nc3ccnn23)c1 | < 100 µM
Cc1c(N[C@H]2CC[C@H](N)CC2)nc2ccnn2c1Nc1ccc(OC2CCCC2)cc1 | < 100 µM
Cc1c(N[C@H]2CC[C@H](N)CC2)nc2ccnn2c1Nc1ccc(OCC2CCCCN2)cc1 (stereo partly specified) | < 100 µM
CC(C)c1c(N[C@H]2CC[C@H](N)CC2)nc2ccnn2c1Nc1ccc(F)c(Cl)c1 | < 100 µM
Cc1c(N[C@H]2CC[C@H](N)CC2)nc2ccnn2c1Nc1ccc(-c2cccc(F)c2)cc1 | < 100 µM
CCCOc1ccc(Nc2c(C)c(N[C@H]3CC[C@H](N)CC3)nc3ccnn23)cc1 | < 100 µM
Cc1ccc(Nc2c(C)c(NC3CCCNC3)nc3ccnn23)cc1C (stereo unspecified) | < 100 µM
Cc1c(N[C@H]2CC[C@H](N)CC2)nc2ccnn2c1Nc1cccc2[nH]ccc12 | < 100 µM
Cc1c(N[C@H]2CC[C@H](N)CC2)nc2ccnn2c1Nc1ccc(OCCc2ccncc2)cc1 | < 100 µM
Cc1csc(-c2ccc(Nc3c(C)c(N[C@H]4CC[C@H](N)CC4)nc4ccnn34)cc2)c1 | < 100 µM
Cc1c(N[C@H]2CC[C@H](N)CC2)nc2ccnn2c1Nc1cccc(OCC2CCCC2)c1 | < 100 µM
CCc1c(N[C@H]2CC[C@H](N)CC2)nc2ccnn2c1Nc1ccc(Oc2ccc(C)cc2)cc1 | < 100 µM
CCOc1ccc(Nc2c(C)c(N[C@H]3CC[C@H](N)CC3)nc3c(NC)cnn23)cc1 | < 100 µM
Cc1c(N[C@H]2CC[C@H](N)CC2)nc2ccnn2c1Nc1cccc(OC2CCCC2)c1 | < 100 µM
Cc1c(N[C@H]2CC[C@H](N)CC2)nc2ccnn2c1Nc1ccc(-c2ccsc2)cc1 | < 100 µM
Cc1c(N[C@H]2CC[C@H](N)CC2)nc2ccnn2c1Nc1cccc(OCc2ccccc2)c1 | < 100 µM

Structure (SMILES) | IC50
CCOc1ccc(Nc2c(C)c(N[C@H]3CC[C@H](N)CC3)nc3c(CO)cnn23)cc1 | < 100 µM
CCCc1c(N[C@H]2CC[C@H](N)CC2)nc2c(Br)cnn2c1Nc1ccc(F)c(Cl)c1 | < 100 µM
CCOc1ccc(Nc2c(C)c(N[C@H]3CCNC3)nc3ccnn23)cc1 | < 100 µM
CCOc1ccc(Nc2c(C)c(N[C@H]3CCN(Cc4ccccc4)C3)nc3ccnn23)cc1 | < 100 µM
CCOc1ccc(Nc2c(C)c(N[C@H]3CC[C@H](N)CC3)nc3c(C(=O)Nc4ccccc4)cnn23)cc1 | < 100 µM
Cc1c(N[C@H]2CC[C@H](N)CC2)nc2ccnn2c1Nc1ccc(-c2csc3ccccc23)cc1 | < 100 µM
Cc1c(N[C@H]2CC[C@H](N)CC2)nc2ccnn2c1Nc1ccc2[nH]ccc2c1 | < 100 µM
CCOc1ccc(Nc2c(C)c(N[C@H]3CC[C@H](N)CC3)nc3c(C#N)cnn23)cc1 | < 100 µM
Cc1c(N[C@H]2CC[C@H](N)CC2)nc2ccnn2c1Nc1ccc(OC(F)(F)F)cc1 | < 100 µM
CNC(=O)c1ccc(Nc2c(C)c(N[C@H]3CC[C@H](N)CC3)nc3ccnn23)cc1 | < 100 µM
Cc1c(N[C@H]2CC[C@H](N)CC2)nc2ccnn2c1Nc1ccc(C(F)(F)F)cc1 | < 100 µM
Cc1c(N[C@H]2CC[C@H](N)CC2)nc2ccnn2c1Nc1ccc(OCc2ccccc2Cl)cc1 | < 100 µM
Cc1c(N[C@H]2CC[C@H](N)CC2)nc2ccnn2c1Nc1ccc(-c2ccsc2C=O)cc1 | < 100 µM
Cc1c(N[C@H]2CC[C@H](N)CC2)nc2ccnn2c1Nc1ccc(C(=O)Nc2ccccc2)cc1 | < 100 µM
Fc1ccc(Nc2cc(NC3CCCNC3)nc3c(Br)cnn23)cc1Cl (stereo unspecified) | < 100 µM
Cc1c(N[C@H]2CC[C@H](N)CC2)nc2ccnn2c1Nc1ccc(-c2cccc(Cl)c2)cc1 | < 100 µM
CCOc1ccc(Nc2c(C)c(N[C@H]3CC[C@H](N)CC3)nc3c(C(=O)Nc4ccccn4)cnn23)cc1 | < 100 µM
Cc1c(N[C@H]2CC[C@H](N)CC2)nc2ccnn2c1Nc1ccccc1 | < 100 µM
Cc1c(N[C@H]2CC[C@H](N)CC2)nc2ccnn2c1Nc1ccc2cn[nH]c2c1 | < 100 µM
CCOc1ccc(Nc2c(C)c(N(C)C3CCCNC3)nc3ccnn23)cc1 (stereo unspecified) | < 100 µM
CCc1c(N[C@H]2CC[C@H](N)CC2)nc2ccnn2c1Nc1ccc(OC(F)(F)F)cc1 | < 100 µM
Cc1c(NC2CCCNC2)nc2ccnn2c1Nc1ccccc1F (stereo unspecified) | < 100 µM
Cc1c(N[C@H]2CC[C@H](N)CC2)nc2ccnn2c1Nc1ccc(OCc2cccc(N)c2)cc1 | < 100 µM
Cc1c(N[C@H]2CC[C@H](N)CC2)nc2ccnn2c1Nc1ccc(OC2CCNC2)cc1 (stereo partly specified) | < 100 µM

Structure (SMILES) | IC50
CCOc1ccc(Nc2c(C)c(N[C@H]3CC[C@H](N)CC3)nc3c(C(=O)NCCN(C)C)cnn23)cc1 | < 100 µM
Cc1c(NC2CCCNC2)nc2ccnn2c1Nc1ccc(I)cc1 (stereo unspecified) | < 100 µM
CSc1cccc(Nc2c(C)c(N[C@H]3CC[C@H](N)CC3)nc3ccnn23)c1 | < 100 µM
Cc1c(N[C@H]2CC[C@H](N)CC2)nc2ccnn2c1Nc1ccc(-c2ccccc2F)cc1 | < 100 µM
Cc1c(N[C@H]2CC[C@H](N)CC2)nc2ccnn2c1Nc1ccc(-c2ccccc2Cl)cc1 | < 100 µM
CCc1c(N[C@H]2CC[C@H](N)CC2)nc2ccnn2c1Nc1ccc(N2CCCCC2)cc1 | < 100 µM
Cc1c(N[C@H]2CC[C@H](N)CC2)nc2ccnn2c1Nc1ccc(-n2ccnc2)cc1 | < 100 µM
Cc1c(N[C@H]2CC[C@H](N)CC2)nc2ccnn2c1Nc1ccc(-c2cccc(CO)c2)cc1 | < 100 µM
Cc1c(N[C@H]2CC[C@H](N)CC2)nc2ccnn2c1NCC(C)(C)C | < 100 µM
Cc1c(N[C@H]2CC[C@H](N)CC2)nc2ccnn2c1Nc1ccc(-c2ccc(OC(F)(F)F)cc2)cc1 | < 100 µM
CCOc1ccc(Nc2c(-c3ccc(OC)cc3)c(N[C@H]3CC[C@H](N)CC3)nc3ccnn23)cc1 | < 100 µM
Cc1c(N[C@H]2CC[C@H](N)CC2)nc2ccnn2c1Nc1ccc(-c2cc3ccccc3o2)cc1 | < 100 µM
Cc1nn2c(Nc3ccc(F)c(Cl)c3)cc(N[C@H]3CC[C@H](N)CC3)nc2c1Br | < 100 µM
C=CCNc1c(-c2ccccc2)c(N[C@H]2CC[C@H](N)CC2)nc2ccnn12 | < 100 µM
Cc1c(N[C@H]2CC[C@H](N)CC2)nc2ccnn2c1Nc1cccc(OCCC2CCCCC2)c1 | < 100 µM
CCc1c(N[C@H]2CC[C@H](N)CC2)nc2ccnn2c1Nc1ccc(Br)cc1 | < 100 µM
CC(=O)c1ccc(-c2ccc(Nc3c(C)c(N[C@H]4CC[C@H](N)CC4)nc4ccnn34)cc2)s1 | < 100 µM
N[C@H]1CC[C@H](Nc2cc(Nc3ccc(F)c(Cl)c3)n3ncc(Br)c3n2)CC1 | < 100 µM
CCOc1ccc(Nc2c(C)c(NC(C)(C)CO)nc3ccnn23)cc1 | < 100 µM
Cc1c(N[C@H]2CC[C@H](N)CC2)nc2ccnn2c1Nc1cccc(O)c1 | < 100 µM
Cc1c(NC2CCCNC2)nc2ccnn2c1Nc1ccc(-c2cccc(CO)c2)cc1 (stereo unspecified) | < 100 µM
Cc1c(N[C@H]2CC[C@H](N)CC2)nc2c(C(=O)C(F)(F)F)cnn2c1Nc1ccc(I)cc1 | < 100 µM
CC(=O)c1ccc(-c2ccc(Nc3c(C)c(N[C@H]4CCCNC4)nc4ccnn34)cc2)s1 | < 100 µM
Cc1c(N[C@H]2CC[C@H](N)CC2)nc2ccnn2c1Nc1ccc(-c2cccc(C(F)(F)F)c2)cc1 | < 100 µM
